Data set [1] can be described thus: Membrane localization on PAMPA membrane. The format is in vitro ADME. As to conditions: 0.2 mM peptide, 0 and 15 min. The text has this:
Membrane was set up as described above. […] Care was taken not to disrupt the membrane when samples were removed.
In order to study the mechanism of this enhanced permeation in more detail, Applicants quantitated the biotin-peptide conjugate's membrane localization.

A short description of data set [2]: PAMPA (parallel artificial membrane permeability assay). The format is in vitro ADME. As to conditions: lauric acid in place of biotin. As to the method: PAMPA assays were set up following manufacturer's instructions. Briefly, 1% phosphatidyl choline (Sigma) was dissolved in dodecane (Sigma) at 65° C. for 3 min. The membrane was applied to each well as per manufacturer's instructions. […] 100 μL of sample was put into each donor well. The acceptor wells contained 300 μL of a 5% DMSO in PBS solution. Passive diffusion was allowed to occur at room temperature for 24 hrs. […] Absorbance at 215 nm was monitored. The area under the peptide peak was integrated.
The acceptor well contained 10 mM DTT as a reducing agent. Data was collected after 6, 12 and 24 hrs. Absorbance at 280 nm was analyzed. The following formula was used to calculate Log Pe: […]
Applicants employed a parallel artificial membrane permeability assay (PAMPA) that will allow for the rapid screening of peptide passive diffusion across a phospholipid bilayer. (Schmidt, et al. (2003) J. Millipore Corporation Application Note AN1729EN00.). In this assay, two chambers are separated by a phospholipid bilayer supported on an inert membrane. Applicants chose to initially focus Applicants examination on peptide ligands developed to bind with high affinity to the heterotrimeric G-proteins Gαi1*GDP and Gα12*GDP. Ja, W. W., et al. (2004) Biochemistry 43:9265; Millward, S. W., et al. (2007) ACS Chem. Biol. 2:625; Fiacco, S. et al. (2008) ChemBioChem 9:2200. These ligands included variations in sequence, size, overall charge, and polarity as well as comparing linear and cyclic peptides, end and biotinylation. […] According to classical methods of increasing permeability. Pinski, C. A., et al. (2001) Advanced Drug Delivery Reviews 46:3. Applicants postulated that the removal of hydrogen bond donors by N-methylation should further increase the permeability of this peptide.
A general note: In PAMPA a lipid-coated filter parts donor from acceptor wells.

With `CCCCCCCCCCCC(=O)O` [Lauric acid], the membrane localization in data set [1] came out at 27%. Besides, in data set [2], the “Log Pe” value was −6.8.

These data come from patent US20180312539A1, “METHODS FOR PREPARING HIGH THROUGHPUT PEPTIDOMIMETICS, ORALLY BIOAVAILABLE DRUGS AND COMPOSITIONS CONTAINING SAME” (University of Southern California, priority 2011, published 2018).
